Measurements as given in patent US20230381183A1, “USE OF FOLIC ACID AND FOLATE MODIFICATION IN INDUCING B-CELL IMMUNE TOLERANCE AND TARGETING mIgM-POSITIVELY-EXPRESSED B-CELL LYMPHOMA” (FUDAN UNIVERSITY, priority 2020, published 2023).
Where no end group is shown, it is not given here.

What was measured:
[1] = system: OVA-specific IgG; test: Oral folic acid: serum OVA-specific IgG by ELISA; assay type: in vivo, BALB/c female mice
Procedure: The BALB/c female mice (5 weeks old) were randomly divided into 4 groups, with 6 mice in each group, and were treated as follows: (1) FA(ig) group: each mouse was administered with 3 mg free folic acid by gavage every day for two weeks: (2) FA(ig)+OVA group: each mouse was administered with 3 mg free folic acid by gavage every day for two weeks, and was administered with OVA via tail vein injection on day 0 and day 7 respectively (10 μg/mouse): (3) OVA group: each mouse was administered with OVA via tail vein injection on days 0 and day 7 respectively (10 μg/mouse); (4) Physiological saline group: each mouse was administered with physiological saline via tail vein injection on day 0 and day 7 respectively. Then, on days 14, 21 and 28, all mice were administered with 100 μl mixed solution of OVA and KLH (hemocyanin) in water (100 μg/mL OVA and 100 ug/mL KLH). The serum was collected before the administration of the mixed solution on days 14, 21 and 28 and on day 35. The specific antibodies in the serum were detected by ELISA. […] The immune function of the body recovered when the administration of FA is discontinued.

[2] = system: antibodies against trastuzumab; test: Serum antibodies against trastuzumab by ELISA; assay type: in vivo, BALB/c female mice; conditions: FA gavage+trastuzumab group: 3 mg free folic acid per day for two weeks, trastuzumab 60 μg/mouse iv days 0, 7, 14; serum day 21
Procedure: For the FA gavage+trastuzumab group, each mouse was administered by gavage with 3 mg free folic acid per day for two weeks, and trastuzumab was administered via tail vein injection at a dose of 60 μg antibody/mouse on days 0, 7 and 14. For the physiological saline group, the mice were injected with physiological saline via tail vein on days 0, 7 and 14. One week after the last administration (day 21), the serum was collected from the mice, and was measured by ELISA for the antibodies against trastuzumab.

[3] = system: antibodies against sLip; test: Serum antibodies against liposomes (sLip) by ELISA; assay type: in vivo, BALB/c female mice; conditions: mixed solution of liposome 5 mg/kg and 10 μg or 50 μg FA, single dose tail vein; serum 5 days after
Procedure: Liposomes (sLip) were prepared firstly. HSPC. Chol and mPEG2000-DSPE (all purchased from AVT (Shanghai) Pharmaceutical Tech Co., Ltd.) were weighted in a molar ratio of 52:43:5. The film materials were dissolved in 5 mL chloroform, and the mixture was subjected to rotary evaporation under reduced pressure to remove chloroform, to obtain a uniform lipid film. Residual organic solvent was removed by vacuum drying overnight. Shaking in a water bath at 60° C. was performed until the liposome membrane is completely hydrated to obtain white liposome suspension. The liposome suspension went through 200 and 100 nuclear pore membrane by a micro-extruder sequentially, to obtain a liquid with pale blue opalescence, i.e., a liposome (sLip) solution.
The BALB/c female mice (6 weeks old) were randomly divided into sLip group, sLip+FA (10 μg) group, sLip+FA (50 μg) group and physiological saline group, with 4 mice in each group. For the sLip group, the liposome solution (5 mg liposome/kg mouse body weight) was administered in a single dose via tail vein. For sLip+FA([…]) group, a mixed solution of liposome (5 mg liposome/kg mouse body weight) and 10 μg FA was administered in a single dose via tail vein. […] Serum was collected from all mice 5 days after administration, and was measured by ELISA for the concentrations of the antibodies against sLip.

[4] = system: KLH-specific antibodies; test: Oral folic acid: serum KLH-specific antibodies by ELISA; assay type: in vivo, BALB/c female mice; conditions: FA(ig) group vs physiological saline group; days 21, 28, 35
Procedure: The BALB/c female mice (5 weeks old) were randomly divided into 4 groups, with 6 mice in each group, and were treated as follows: (1) FA(ig) group: each mouse was administered with 3 mg free folic acid by gavage every day for two weeks: (2) FA(ig)+OVA group: each mouse was administered with 3 mg free folic acid by gavage every day for two weeks, and was administered with OVA via tail vein injection on day 0 and day 7 respectively (10 μg/mouse): (3) OVA group: each mouse was administered with OVA via tail vein injection on days 0 and day 7 respectively (10 μg/mouse); (4) Physiological saline group: each mouse was administered with physiological saline via tail vein injection on day 0 and day 7 respectively. Then, on days 14, 21 and 28, all mice were administered with 100 μl mixed solution of OVA and KLH (hemocyanin) in water (100 μg/mL OVA and 100 ug/mL KLH). The serum was collected before the administration of the mixed solution on days 14, 21 and 28 and on day 35. The specific antibodies in the serum were detected by ELISA. […] The results also confirmed that the immune function of the body recovered when the administration of FA is discontinued.

[5] = Water solubility (observation on preparation); assay type: physicochemical
[6] = system: antibodies against infliximab; test: Serum antibodies against infliximab by ELISA; assay type: in vivo, BALB/c female mice; conditions: FA gavage+infliximab group: 3 mg free folic acid per day for two weeks, infliximab 60 μg/mouse iv days 0, 7, 14; serum day 21
Procedure: The BALB/c female mice (6 weeks old) were randomly divided into infliximab group, FA gavage+infliximab group and physiological saline group, with 5 mice in each group. For the infliximab group, a dose of 60 μg antibody/mouse was administrated via tail vein injection on days 0, 7 and 14. For the FA gavage+infliximab group, each mouse was administered with 3 mg free folic acid by gavage per day for two weeks, and infliximab was administered via tail vein injection at a dose of 60 μg antibody/mouse on days 0, 7 and 14. For the physiological saline group, the mice were injected with physiological saline via tail vein on days 0, 7 and 14. One week after the last administration (day 21), the serum was collected from the mice, and was measured by ELISA for the antibodies against infliximab.

[7] = system: experimental autoimmune encephalomyelitis (EAE) model; test: Experimental autoimmune encephalomyelitis (EAE) model; assay type: in vivo, female C57/BL6 mice; conditions: 10 μg/mouse iv once a week x3 before PLP emulsion induction
Procedure: The efficacy of folate modification in autoimmune encephalomyelitis was investigated using an experimental autoimmune encephalomyelitis (EAE) model. The model was established as follows: the animals were injected with whole protein or protein fragment (e.g., PLP polypeptide) that induces nerve cell myelin sheath and peripheral protein, causing inflammation and demyelination symptoms and inducing the autoimmune response of the animal: thereby the injected self-proteins are regarded as foreign objects and cause the immune system to attack the self myelin sheath.
The female C57/BL6 mice were intravenously injected with PLP polypeptide (amino acid sequence. […]) or folate-PLP complex (FA-PLP) at a dose of 10 μg/mouse, once a week for three times in total. One week later, the emulsion of PLP polypeptide in Freund's complete adjuvant was prepared, the concentration of PLP being 1 μg/μL. Four points were set up on both sides of the back of the mouse, and 0.05 mL PLP emulsion was injected subcutaneously at each point to induce inflammation, 2 and 24 hours after PLP injection, 150 ng pertussis toxin was injected intraperitoneally. The incidence in the mice was observed every day, and the mice were scored according to the 5-point scoring standard (Kono method). The incidence scoring curve was plotted.

[8] = system: Anti-Drug Antibodies (ADAs); conditions: phase I single-dose study, healthy subjects; cited from earlier work

Nc1nc2ncc(CNc3ccc(C(=O)N[C@@H](CCC(=O)O)C(=O)O)cc3)nc2c(=O)[nH]1 [folic acid]
level of OVA-specific IgG in the serum ([1]; day 28, FA(ig)+OVA group, after FA discontinued): comparable to that in the OVA group | level of OVA-specific IgG in the serum ([1]; days 14 and 21, FA(ig)+OVA group: 3 mg free folic acid by gavage daily for two weeks, OVA 10 μg/mouse iv day 0 and 7): significantly lower than that in the OVA group | level of antibodies against trastuzumab [2]: significantly lower than that in the trastuzumab group | production of the antibodies against liposomes (sLip) [3]: effectively reduce the production of the antibodies against liposomes, and the effect increases as the concentration of folic acid increases | levels of KLH-specific antibodies in serum [4]: similar | water solubility [5]: insoluble in water | level of antibodies against infliximab [6]: significantly lower than that in the infliximab group

FA-PLP: folate-modified PLP polypeptide HSLGKWLGHPDKF (also: folate conjugate, site not given here)
immune tolerance to PLP / inflammatory response (incidence score, Kono method) [7]: causes the body's immune tolerance to PLP and contributes to reducing the inflammatory response

adalimumab
incidence of ADAs [8]: 70-100%
